“And” between values parts separate entries of the source, which are not always exact repeats. Identical values can stand only once. Inconclusive results and toxic doses are left out.
Tested on: P388 leukemia ip, CD2F1 mice, survival T/C
Experiment: NCI In Vivo Anticancer Drug Screen. Data for tumor model P388 Leukemia (intraperitoneal) in CD2F1 (CDF1) mice
Conditions: endpoint: median survival time, higher = longer survival
In short: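 Mice carrying the transplanted tumor received test compound or vehicle. Survival was recorded in each group, and the value is the treated-group measurement divided by that of the vehicle-treated control group.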

[1] = dose: 25.0 mg/kg/injection, schedule: Q01DX005 (ip), vehicle: Klucel (hydroxypropylcellulose) (HPC)
[2] = dose: 50.0 mg/kg/injection, schedule: Q01DX005 (ip), vehicle: Klucel (hydroxypropylcellulose) (HPC)
[3] = dose: 60.0 mg/kg/injection, schedule: Q01DX005 (ip), vehicle: Klucel (hydroxypropylcellulose) (HPC)
[4] = dose: 120.0 mg/kg/injection, schedule: Q01DX005 (ip), vehicle: Klucel (hydroxypropylcellulose) (HPC)
[5] = dose: 240.0 mg/kg/injection, schedule: Q01DX005 (ip), vehicle: Klucel (hydroxypropylcellulose) (HPC)
[6] = dose: 12.5 mg/kg/injection, schedule: Q01DX005 (ip), vehicle: Klucel (hydroxypropylcellulose) (HPC)
[7] = dose: 50.0 mg/kg/injection, schedule: Q01DX009 (ip), vehicle: saline
[8] = dose: 100.0 mg/kg/injection, schedule: Q01DX009 (ip), vehicle: saline
[9] = dose: 200.0 mg/kg/injection, schedule: Q01DX009 (ip), vehicle: saline
[10] = dose: 400.0 mg/kg/injection, schedule: Q01DX009 (ip), vehicle: saline
[11] = dose: 100.0 mg/kg/injection, schedule: Q01DX009 (ip), vehicle: saline with Tween-80
[12] = dose: 200.0 mg/kg/injection, schedule: Q01DX009 (ip), vehicle: saline with Tween-80
[13] = dose: 50.0 mg/kg/injection, schedule: Q01DX005 (ip), vehicle: saline with Tween-80
[14] = dose: 100.0 mg/kg/injection, schedule: Q01DX005 (ip), vehicle: saline with Tween-80

CC(/C=N/Nc1ccccc1)=N\N=c1/scc(-c2ccccc2)n1Cc1ccccc1
T/C (dose: 100.0 mg/kg/injection, schedule: Q01DX001 (ip), vehicle: saline with Tween-80): 93 % of control
T/C (dose: 200.0 mg/kg/injection, schedule: Q01DX001 (ip), vehicle: saline with Tween-80): 97 % of control
T/C (dose: 400.0 mg/kg/injection, schedule: Q01DX001 (ip), vehicle: saline with Tween-80): 93 % of control

O=c1[nH]cnc2nc(/N=N/SCCO)[nH]c12
T/C [1]: 104 % of control
T/C [2]: 110 % of control
T/C (dose: 100.0 mg/kg/injection, schedule: Q01DX005 (ip), vehicle: Klucel (hydroxypropylcellulose) (HPC)): 119 % of control

CC(=O)Cc1nc2ccccc2[nH]c1=O
T/C (dose: 15.0 mg/kg/injection, schedule: Q01DX005 (ip), vehicle: Klucel (hydroxypropylcellulose) (HPC)): 92 % of control
T/C (dose: 30.0 mg/kg/injection, schedule: Q01DX005 (ip), vehicle: Klucel (hydroxypropylcellulose) (HPC)): 90 % of control and 96 % of control
T/C [3]: 90 % of control and 98 % of control
T/C [4]: 91 % of control
T/C [5]: 100 % of control

COc1ccc2c(C(=O)c3ccccc3)c3[n+](cc2c1OC)CCc1cc2c(cc1-3)OCO2
T/C (dose: 6.25 mg/kg/injection, schedule: Q01DX005 (ip), vehicle: Klucel (hydroxypropylcellulose) (HPC)): 103 % of control
T/C [6]: 103 % of control

C[S+](C)CCO
T/C [7]: 100 % of control
T/C [8]: 102 % of control
T/C [9]: 98 % of control
T/C [10]: 95 % of control

O=C(O)COc1ccc2ccccc2c1
T/C [11]: 90 % of control
T/C (dose: 100.0 mg/kg/injection, schedule: Q04DX003 (ip), vehicle: saline with Tween-80): 100 % of control
T/C [12]: 100 % of control
T/C (dose: 200.0 mg/kg/injection, schedule: Q04DX003 (ip), vehicle: saline with Tween-80): 110 % of control

CC[n+]1cccc(O)c1
T/C [7]: 105 % of control and 94 % of control
T/C [8]: 95 % of control and 96 % of control
T/C [9]: 107 % of control and 95 % of control
T/C [10]: 100 % of control and 105 % of control

CC1C(O)[C@@]2(OC[C@@]34C(=O)CC5(O)[C@H](CCC6Cc7nc8c(nc7C[C@]65C)CC5CC[C@@H]6C7=C[C@H]9O[C@@]%10(O[C@@](C)(CO)C[C@@H]%10O)C(C)[C@@]9(O)[C@]7(C)[C@@H](O)CC6[C@]5(C)C8)C3=CC[C@H]4C2C)OC1(C)C (stereo partly drawn)
T/C (dose: 10.0 micrograms/kg/injection, schedule: Q01DX005 (ip), vehicle: saline + alcohol): 117 % of control and 121 % of control
T/C (dose: 20.0 micrograms/kg/injection, schedule: Q01DX005 (ip), vehicle: saline + alcohol): 115 % of control and 117 % of control
T/C (dose: 40.0 micrograms/kg/injection, schedule: Q01DX005 (ip), vehicle: saline + alcohol): 123 % of control and 124 % of control
T/C (dose: 40.0 micrograms/kg/injection, schedule: Q01DX009 (ip), vehicle: saline + alcohol): 115 % of control

Cc1ccc2[nH]cc(C3CCCN4CCCCC34)c2c1 (stereo not drawn)
T/C (dose: 12.5 mg/kg/injection, schedule: Q01DX001 (ip), vehicle: saline with Tween-80): 99 % of control
T/C (dose: 25.0 mg/kg/injection, schedule: Q01DX001 (ip), vehicle: saline with Tween-80): 100 % of control
T/C (dose: 50.0 mg/kg/injection, schedule: Q01DX001 (ip), vehicle: saline with Tween-80): 98 % of control
T/C (dose: 90.0 mg/kg/injection, schedule: Q01DX001 (ip), vehicle: saline with Tween-80): 92 % of control

COC(=O)N1C=Cc2ccccc2C1(C#N)C(=S)SC (stereo not drawn)
T/C [13]: 102 % of control
T/C [14]: 93 % of control
T/C (dose: 200.0 mg/kg/injection, schedule: Q01DX005 (ip), vehicle: saline with Tween-80): 91 % of control

CCCCCCCCCCCN(C)C
T/C [13]: 105 % of control
T/C [14]: 105 % of control

COc1ccc(C2=C(Cl)C(=O)N(c3cccc(Cl)c3)C(=O)C2(Cl)Cl)cc1
T/C (dose: 100.0 mg/kg/injection, schedule: Q04DX002 (ip), vehicle: Klucel (hydroxypropylcellulose) (HPC)): 100 % of control and 86 % of control (2×)
T/C (dose: 200.0 mg/kg/injection, schedule: Q04DX002 (ip), vehicle: Klucel (hydroxypropylcellulose) (HPC)): 104 % of control and 91 % of control and 97 % of control
T/C (dose: 400.0 mg/kg/injection, schedule: Q04DX002 (ip), vehicle: Klucel (hydroxypropylcellulose) (HPC)): 100 % of control and 122 % of control and 90 % of control
T/C (dose: 600.0 mg/kg/injection, schedule: Q04DX002 (ip), vehicle: Klucel (hydroxypropylcellulose) (HPC)): 98 % of control and 109 % of control

CC[C@@]1(O)C[C@H](OC2CC(N(C)C)C(OC3CC(O)C(OC4CCC(=O)C(C)O4)C(C)O3)C(C)O2)c2c(cc3c(c2O)C(=O)c2c(O)ccc(O)c2C3=O)[C@H]1C(=O)OC (stereo partly drawn)
T/C (dose: 1.56 mg/kg/injection, schedule: Q04DX003 (ip), vehicle: saline): 116 % of control
T/C (dose: 2.0 mg/kg/injection, schedule: Q04DX003 (ip), vehicle: saline with Tween-80): 154 % of control and 161 % of control
T/C (dose: 2.59 mg/kg/injection, schedule: Q04DX003 (ip), vehicle: water): 160 % of control
T/C (dose: 4.32 mg/kg/injection, schedule: Q04DX003 (ip), vehicle: saline): 152 % of control and 153 % of control and 160 % of control
T/C (dose: 4.32 mg/kg/injection, schedule: Q04DX003 (ip), vehicle: water): 151 % of control and 169 % of control
T/C (dose: 7.2 mg/kg/injection, schedule: Q04DX003 (ip), vehicle: saline): 164 % of control and 180 % of control
T/C (dose: 8.0 mg/kg/injection, schedule: Q04DX003 (ip), vehicle: saline with Tween-80): 94 % of control and 98 % of control
T/C (dose: 12.0 mg/kg/injection, schedule: Q04DX003 (ip), vehicle: saline): 103 % of control
T/C (dose: 12.0 mg/kg/injection, schedule: Q04DX003 (ip), vehicle: water): 92 % of control

CC(=O)Nc1ccc2c(c1)/C(=C/c1ccc(N(C)C)cc1)c1ccccc1-2
T/C (dose: 25.0 mg/kg/injection, schedule: Q01DX009 (ip), vehicle: Klucel (hydroxypropylcellulose) (HPC)): 91 % of control
T/C (dose: 50.0 mg/kg/injection, schedule: Q01DX009 (ip), vehicle: Klucel (hydroxypropylcellulose) (HPC)): 96 % of control
T/C (dose: 100.0 mg/kg/injection, schedule: Q01DX009 (ip), vehicle: Klucel (hydroxypropylcellulose) (HPC)): 96 % of control
T/C (dose: 200.0 mg/kg/injection, schedule: Q01DX009 (ip), vehicle: Klucel (hydroxypropylcellulose) (HPC)): 100 % of control

CCCCCCCCCCCCOc1ccc(Br)cc1C(=O)O
T/C (dose: 50.0 mg/kg/injection, schedule: Q01DX009 (ip), vehicle: saline with Tween-80): 100 % of control
T/C [11]: 112 % of control
T/C [12]: 105 % of control

C=CS(=O)(=O)c1cccc(N2C(=O)c3cc(S(=O)(=O)O)cc4c(N)c(S(=O)(=O)O)cc(c34)C2=O)c1
T/C (dose: 50.0 mg/kg/injection, schedule: Q01DX005 (ip), vehicle: saline): 107 % of control
T/C (dose: 100.0 mg/kg/injection, schedule: Q01DX005 (ip), vehicle: saline): 107 % of control
T/C (dose: 200.0 mg/kg/injection, schedule: Q01DX005 (ip), vehicle: saline): 100 % of control

Cc1ccc(S(=O)(=O)N/N=C/c2c(-c3ccc(-c4ccccc4)cc3)nc3sccn23)cc1
T/C (dose: 100.0 mg/kg/injection, schedule: Q01DX001 (ip), vehicle: Klucel (hydroxypropylcellulose) (HPC)): 94 % of control
T/C (dose: 200.0 mg/kg/injection, schedule: Q01DX001 (ip), vehicle: Klucel (hydroxypropylcellulose) (HPC)): 86 % of control
T/C (dose: 400.0 mg/kg/injection, schedule: Q01DX001 (ip), vehicle: Klucel (hydroxypropylcellulose) (HPC)): 88 % of control

Cc1cc(O)cc(=O)n1CCc1ccccc1
T/C [3]: 88 % of control
T/C [4]: 94 % of control
T/C [5]: 96 % of control

CN(C)/C(=C(\CBr)C(=O)c1ccc(-c2ccccc2)cc1)c1ccccc1
T/C [6]: 108 % of control
T/C [1]: 105 % of control
T/C [2]: 105 % of control and 107 % of control

Cc1cc(N(CCO)CCO)c(OCc2ccccc2)c(N(CCO)CCO)c1
T/C [3]: 99 % of control
T/C [4]: 100 % of control
T/C [5]: 98 % of control

CNc1ccccc1C(=O)N1CCc2c([nH]c3ccccc23)C1=O
T/C (dose: 25.0 mg/kg/injection, schedule: Q01DX009 (ip), vehicle: saline with Tween-80): 98 % of control
T/C [11]: 93 % of control

O=C1/C(=C/c2ccccc2)Cc2ccccc21
T/C [11]: 100 % of control
T/C [12]: 100 % of control
T/C (dose: 400.0 mg/kg/injection, schedule: Q01DX009 (ip), vehicle: saline with Tween-80): 95 % of control

Cc1cnc2ccc(O)cc2c1CO
T/C (dose: 100.0 mg/kg/injection, schedule: Q04DX002 (ip), vehicle: saline with Tween-80): 92 % of control
T/C (dose: 200.0 mg/kg/injection, schedule: Q04DX002 (ip), vehicle: saline with Tween-80): 94 % of control
T/C (dose: 400.0 mg/kg/injection, schedule: Q04DX002 (ip), vehicle: saline with Tween-80): 93 % of control

COc1cc(NC(=O)C2=C(C)NC(C)=C(C(=O)Nc3cc(OC)c(Cl)cc3OC)C2c2cccc([N+](=O)[O-])c2)c(OC)cc1Cl
T/C [3]: 89 % of control
T/C [4]: 89 % of control

Reference: PubChem BioAssay AID330 (DTP/NCI, 2004)
